From US12559573B2, “Biotin-specific monoclonal antibody and use thereof” (Roche Diagnostics Operations, Inc., priority 2016, dated 2026)

Assay: Biotin interference in Elecsys TSH sandwich assay
Settings: control reagent without anti-biotin antibody
Experimental: The control sample for the Elecsys TSH assay, PreciControl Universal 2 is spiked with rising concentrations of biotin (e.g. 0, 100 and 200 ng/mL final concentration of biotin). Reagent 2 of the Elecsys TSH sales kit containing the anti TSH detection-antibody is used in a unmodified version (control), and a modified version, additionally containing 300 μg/mL of an monoclonal anti Biotin antibody according to the invention. The sandwich assay is performed according to the routine assay protocol for the Elecsys TSH assay: Shortly, 50 μL of Sample (PreciControl Universal 2 with or without biotin) are incubated with 60 μL of Reagent 1 of the Elecsys TSH kit containing the biotinylated anti-TSH antibody and 50 μL of Reagent 2 containing the ruthenylated anti-TSH antibody with or without further addition of 300 μg/mL of the monoclonal anti Biotin antibody. After incubation at 37° C. for 9 min, 40 μL suspension of streptavidin coated magnetic beads of the Elecsys TSH kit are added, the reaction is incubated for another 9 min and finally the reaction mixture is aspirated into the measuring cell where the microparticles are magnetically captured onto the surface of the electrode. Unbound substances are then removed with ProCell. Application of a voltage to the electrode then induces electrochemiluminescense-based emission of light which is measured by a photomultiplier.

O=C(O)CCCC[C@@H]1SC[C@@H]2NC(=O)N[C@@H]21 [biotin, 5-[(3aS,4S,6aR)-2-oxo-1,3,3a,4,6,6a-hexahydrothieno[3,4-d]imidazol-4-yl]pentanoic acid]
Signal relative to reference signal (sample without biotin) (100 ng/mL biotin in sample): 53%
Signal relative to reference signal (sample without biotin) (200 ng/mL biotin in sample): 16%
